Measured values taken from PubChem BioAssay AID330 (DTP/NCI, 2004).
Where “and” joins values, the source holds several entries; their conditions need not be identical. Equal entries are not always repeated. Inconclusive results and toxic doses are left out. The calls were made as follows: active = survival T/C of 150% or more; inactive = T/C below 125% in these data.

Tested on: P388 leukemia ip, CD2F1 mice, survival T/C
Test: NCI In Vivo Anticancer Drug Screen. Data for tumor model P388 Leukemia (intraperitoneal) in CD2F1 (CDF1) mice
Settings: endpoint: median survival time, higher = longer survival
How it was run: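 Mice carrying the transplanted tumor received test compound or vehicle. Survival was recorded in each group, and the value is the treated-group measurement divided by that of the vehicle-treated control group.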

[1] = dose: 50.0 mg/kg/injection, schedule: Q01DX005 (ip), vehicle: Klucel (hydroxypropylcellulose) (HPC)
[2] = dose: 100.0 mg/kg/injection, schedule: Q01DX005 (ip), vehicle: Klucel (hydroxypropylcellulose) (HPC)
[3] = dose: 200.0 mg/kg/injection, schedule: Q01DX005 (ip), vehicle: Klucel (hydroxypropylcellulose) (HPC)
[4] = dose: 100.0 mg/kg/injection, schedule: Q01DX009 (ip), vehicle: Klucel (hydroxypropylcellulose) (HPC)
[5] = dose: 200.0 mg/kg/injection, schedule: Q01DX009 (ip), vehicle: Klucel (hydroxypropylcellulose) (HPC)
[6] = dose: 60.0 mg/kg/injection, schedule: Q01DX005 (ip), vehicle: saline with Tween-80
[7] = dose: 120.0 mg/kg/injection, schedule: Q01DX005 (ip), vehicle: saline with Tween-80
[8] = dose: 240.0 mg/kg/injection, schedule: Q01DX005 (ip), vehicle: saline with Tween-80
[9] = dose: 100.0 mg/kg/injection, schedule: Q01DX009 (ip), vehicle: saline with Tween-80
[10] = dose: 100.0 mg/kg/injection, schedule: Q04DX003 (ip), vehicle: saline with Tween-80
[11] = dose: 200.0 mg/kg/injection, schedule: Q01DX009 (ip), vehicle: saline with Tween-80
[12] = dose: 200.0 mg/kg/injection, schedule: Q04DX003 (ip), vehicle: saline with Tween-80
[13] = dose: 400.0 mg/kg/injection, schedule: Q04DX003 (ip), vehicle: saline with Tween-80
[14] = dose: 50.0 mg/kg/injection, schedule: Q01DX005 (ip), vehicle: saline with Tween-80
[15] = dose: 100.0 mg/kg/injection, schedule: Q01DX005 (ip), vehicle: saline with Tween-80
[16] = dose: 200.0 mg/kg/injection, schedule: Q01DX005 (ip), vehicle: saline with Tween-80
[17] = dose: 25.0 mg/kg/injection, schedule: Q01DX009 (ip), vehicle: saline
[18] = dose: 50.0 mg/kg/injection, schedule: Q01DX009 (ip), vehicle: saline
[19] = dose: 60.0 mg/kg/injection, schedule: Q01DX005 (ip), vehicle: Klucel (hydroxypropylcellulose) (HPC)
[20] = dose: 120.0 mg/kg/injection, schedule: Q01DX005 (ip), vehicle: Klucel (hydroxypropylcellulose) (HPC)

Measured: T/C

OCC1NCCC(O)C1OC1OC(CO)C(O)C(O)C1O (configuration not stated)
inactive: dose: 6.88 mg/kg/injection, schedule: Q01DX005 (ip), vehicle: water 103 % of control | dose: 13.75 mg/kg/injection, schedule: Q01DX005 (ip), vehicle: water 100 % of control | dose: 27.5 mg/kg/injection, schedule: Q01DX005 (ip), vehicle: water 100 % of control | dose: 55.0 mg/kg/injection, schedule: Q01DX005 (ip), vehicle: water 99 % of control

CCC(c1cccc(O)c1)C(CC)c1cccc(O)c1 (configuration not stated)
inactive: [1] 102 % of control | [2] 102 % of control | [3] 103 % of control

C[CH2][Sn]([CH2]C)[CH2]C.C[CH2][Sn]([CH2]C)[CH2]C
inactive: dose: 12.5 mg/kg/injection, schedule: Q01DX005 (ip), vehicle: Klucel (hydroxypropylcellulose) (HPC) 105 % of control and 97 % of control | dose: 25.0 mg/kg/injection, schedule: Q01DX005 (ip), vehicle: Klucel (hydroxypropylcellulose) (HPC) 101 % of control and 114 % of control | [1] 110 % of control and 97 % of control | [2] 113 % of control

COC1/C=C/OC2(C)Oc3c(C)c(O)c4c(c3C2=O)C(=O)C([N+](=O)[O-])=C(NC(=O)C(C)=C/C=C\C(C)C(O)C(C)C(O)C(C)C(OC(C)=O)C1C)C4=O (configuration not stated)
inactive: [4] 90 % of control | [5] 98 % of control

COC(=O)c1c(C(=O)c2ccccc2)nnn1-c1cccc(C(F)(F)F)c1
inactive: dose: 60.0 mg/kg/injection, schedule: Q01DX005 (ip), vehicle: Klucel + Tween-80 102 % of control | dose: 120.0 mg/kg/injection, schedule: Q01DX005 (ip), vehicle: Klucel + Tween-80 103 % of control | dose: 240.0 mg/kg/injection, schedule: Q01DX005 (ip), vehicle: Klucel + Tween-80 107 % of control

Cc1cc(-c2cc(C)nc(N)n2)nc(N)n1
inactive: dose: 60.0 mg/kg/injection, schedule: Q01DX005 (ip), vehicle: saline 100 % of control | dose: 120.0 mg/kg/injection, schedule: Q01DX005 (ip), vehicle: saline 100 % of control | dose: 240.0 mg/kg/injection, schedule: Q01DX005 (ip), vehicle: saline 108 % of control

COCC1=C(C)CC(C(C)(C)C(=O)OC)C1=O (configuration not stated)
inactive: dose: 100.0 mg/kg/injection, schedule: Q01DX001 (ip), vehicle: saline 101 % of control | dose: 200.0 mg/kg/injection, schedule: Q01DX001 (ip), vehicle: saline 101 % of control | dose: 400.0 mg/kg/injection, schedule: Q01DX001 (ip), vehicle: saline 104 % of control

COc1ccc(C(O)Cc2cc(OC)c(OC)c(OC)c2)cc1O (configuration not stated)
inactive: dose: 31.25 mg/kg/injection, schedule: Q01DX009 (ip), vehicle: saline + Tween-80 + alcohol 105 % of control | dose: 62.5 mg/kg/injection, schedule: Q01DX009 (ip), vehicle: saline + Tween-80 + alcohol 98 % of control | dose: 125.0 mg/kg/injection, schedule: Q01DX009 (ip), vehicle: saline + Tween-80 + alcohol 89 % of control | dose: 250.0 mg/kg/injection, schedule: Q01DX009 (ip), vehicle: saline + Tween-80 + alcohol 91 % of control

Clc1ccc(Nc2ncnc3oc(-c4ccccc4)c(-c4ccccc4)c23)cc1
inactive: [6] 100 % of control | [7] 97 % of control | [8] 90 % of control

O=[N+]([O-])c1cc2cc(Cl)c3ccccc3c2o1
inactive: [1] 100 % of control | [2] 102 % of control | [3] 102 % of control

CCOC(=O)C1CCC/C1=N/Nc1ccc([N+](=O)[O-])cc1[N+](=O)[O-] (configuration not stated)
inactive: dose: 100.0 mg/kg/injection, schedule: Q01DX001 (ip), vehicle: Klucel (hydroxypropylcellulose) (HPC) 94 % of control | dose: 200.0 mg/kg/injection, schedule: Q01DX001 (ip), vehicle: Klucel (hydroxypropylcellulose) (HPC) 93 % of control | dose: 400.0 mg/kg/injection, schedule: Q01DX001 (ip), vehicle: Klucel (hydroxypropylcellulose) (HPC) 93 % of control

O=C(CCN1C(=O)NC(c2ccccc2)(c2ccccc2)C1=O)NCCN1CCOCC1
inactive: [6] 96 % of control | [7] 100 % of control | [8] 102 % of control

CC(=O)OCC1OC(n2cc(C)c(=O)[nH]c2=O)CC1OC(C)=O (configuration not stated)
inactive: [9] 110 % of control | [10] 100 % of control | [11] 110 % of control | [12] 100 % of control | dose: 400.0 mg/kg/injection, schedule: Q01DX009 (ip), vehicle: saline with Tween-80 110 % of control | [13] 104 % of control

CCCNC(=O)NC1CC(=O)N(CCC)C1=O (configuration not stated)
inactive: [14] 93 % of control | [15] 100 % of control | [16] 102 % of control

C1=CCC23COCC2(C1)CSC3 (configuration not stated)
inactive: dose: 12.5 mg/kg/injection, schedule: Q01DX009 (ip), vehicle: saline 96 % of control | [17] 92 % of control | [18] 99 % of control

CC(C)C1N=C(c2ccccc2)OC1=O (configuration not stated)
inactive: [19] 92 % of control | [20] 92 % of control | dose: 240.0 mg/kg/injection, schedule: Q01DX005 (ip), vehicle: Klucel (hydroxypropylcellulose) (HPC) 100 % of control

CSc1ccc(C(C)=O)cc1
inactive: dose: 50.0 mg/kg/injection, schedule: Q01DX009 (ip), vehicle: saline + alcohol 100 % of control | dose: 100.0 mg/kg/injection, schedule: Q01DX009 (ip), vehicle: saline + alcohol 102 % of control | dose: 200.0 mg/kg/injection, schedule: Q01DX009 (ip), vehicle: saline + alcohol 100 % of control | dose: 400.0 mg/kg/injection, schedule: Q01DX009 (ip), vehicle: saline + alcohol 104 % of control

CCC(=O)O[C@H]1CC[C@H]2[C@@H]3C[C@H](C)C4=CC(=O)C=C[C@]4(C)[C@H]3C(=O)C[C@]12C
inactive: [10] 90 % of control | [12] 104 % of control | [13] 100 % of control

Cc1coc2c3c(ccc12)OC(C)(C)C=C3
inactive: dose: 100.0 mg/kg/injection, schedule: Q01DX001 (ip), vehicle: saline with Tween-80 102 % of control | dose: 200.0 mg/kg/injection, schedule: Q01DX001 (ip), vehicle: saline with Tween-80 104 % of control

O=C(Nc1cccc(Cl)c1)Sc1c(Cl)c(Cl)c(Cl)c(Cl)c1Cl
inactive: dose: 50.0 mg/kg/injection, schedule: Q01DX009 (ip), vehicle: saline with Tween-80 106 % of control | [9] 109 % of control | [11] 112 % of control

C=C1C(C2(C)C(OC(C)=O)CC(=O)OC3(C)COC(=O)CC32)C(OC=O)C(OC(=O)CC(C)C)C2(C)C(c3ccoc3)CC(=O)C12O (configuration not stated)
inactive: dose: 0.25 mg/kg/injection, schedule: Q01DX009 (ip), vehicle: Klucel (hydroxypropylcellulose) (HPC) 88 % of control | dose: 0.5 mg/kg/injection, schedule: Q01DX009 (ip), vehicle: Klucel (hydroxypropylcellulose) (HPC) 91 % of control | dose: 1.0 mg/kg/injection, schedule: Q01DX009 (ip), vehicle: Klucel (hydroxypropylcellulose) (HPC) 88 % of control | dose: 2.0 mg/kg/injection, schedule: Q01DX009 (ip), vehicle: Klucel (hydroxypropylcellulose) (HPC) 97 % of control

O=CNC(NC=O)NC=O
inactive: [17] 109 % of control | [18] 97 % of control | dose: 100.0 mg/kg/injection, schedule: Q01DX009 (ip), vehicle: saline 105 % of control | dose: 200.0 mg/kg/injection, schedule: Q01DX009 (ip), vehicle: saline 104 % of control

O=C(O)c1ccc(N=NC2Sc3nc4ccccc4n3C2=O)cc1 (configuration not stated)
inactive: [19] 92 % of control | [20] 91 % of control

CCCCCCCC/C=C/CCCCCCCC(=O)N(C)CCOC(=O)C(C)(C)C
inactive: dose: 50.0 mg/kg/injection, schedule: Q01DX009 (ip), vehicle: Klucel (hydroxypropylcellulose) (HPC) 122 % of control and 95 % of control | [4] 106 % of control and 120 % of control | [5] 103 % of control and 114 % of control

CCOC(=O)C1=C(O)C(C)(c2ccc(O)cc2O)N=C1c1ccccc1 (configuration not stated)
inactive: [1] 95 % of control | [2] 96 % of control | [3] 89 % of control

CC(C)C1N(N2C(=O)CS(=O)(=O)C2C(C)C)C(=O)CS1(=O)=O (configuration not stated)
inactive: [14] 98 % of control | [15] 101 % of control | [16] 102 % of control

CN(CCO)CNC(=O)C1=C(O)C2(O)C(=O)C3=C(O)c4c(O)cccc4C(C)(O)C3CC2C(N(C)C)C1=O (configuration not stated)
inactive: [1] 105 % of control | [2] 103 % of control | [3] 100 % of control
